From publication PMC9866191, “Novel 9-Benzylaminoacridine Derivatives as Dual Inhibitors of Phosphodiesterase 5 and Topoisomerase II for the Treatment of Colon Cancer” (Molecules, 2023)

Key:
[1] = system: panel of 60 human tumor cell lines; assay: NCI 60-cell line one-dose screen (mean); type: cell-based; settings: mean of the 60 cell lines, single dose 10^−5 M, read-out: Mean % Growth Inhibition
Method: The newly synthesized compounds were screened for their in vitro anticancer activity at the Developmental Therapeutic Program (DTP) of the National Cancer Institute (NCI). The screening involved a panel of 60 human tumor cell lines consisting of 9 tissue types to screen for potential anti-cancer agents. The primary screening of submitted compounds was performed by testing a single dose (10^−5 M) in the full NCI-60 panel. The detailed % inhibition by the tested compounds against the 60 cell lines is shown in Tables S1–S3 in the Supporting Information.

[2] = target: T1, human DNA Topo II (Homo sapiens, UniProt P11388); assay: Topo II-mediated relaxation of supercoiled pHOT1 plasmid DNA; type: biochemical; settings: at 1 and 5 µM doses; similar to doxorubicin
T1 construct: purchased Topogen, Columbus, OH, USA
Method: Consequently, the effects of the synthesized compounds on Topo II activity were evaluated with a cell-free assay using a purified human DNA Topo II-protein-mediated relaxation of the negatively supercoiled pHOT1 plasmid DNA [40]. […] Two Topo II inhibitors (doxorubicin and etoposide) were used as positive controls.
The reaction was terminated by adding 2 μL of 10% SDS, followed by 2.5 μL of proteinase K (50 μg/mL) to digest the bound protein. The system was incubated at 37 °C for 15 min. The DNA product was finally analyzed using electrophoresis on a vertical 1.5% agarose gel at 2 volts/cm in 1 × TAE buffer and photographed using the Eagle Eye II system (Stratagene, La Jolla, CA, USA).
Figure 2 Effects of compounds on topoisomerase II activity. Effects on Topo II-mediated relaxation of supercoiled pHOT1 plasmid DNA in a cell-free system. Positive control: etoposide (10 µM); doxorubicin (5 µM) used as Topo II poison (induction of linear DNA); DNA relaxation: plasmid DNA + topo IIα + solvent control. Nick, nicked DNA; Sc, supercoiled DNA; Lin, linear DNA.

[3] = system: HCT-116 cells; assay: Annexin-V/PI apoptosis assay; type: cell-based, human; settings: 10 µM, 24 h
Method: For the same set of compounds, the apoptosis-inducing effects in HCT-116 cells were assessed using Annexin-V/PI double staining at 10 µM (Figure 3).
The number of apoptotic/necrotic cells was analyzed using flow cytometry following the manufacturer’s protocol. Markers were assessed using a FACS-Caliburflow cytometer (Beckman Coulter, Taipei, Taiwan) and analyzed using WinMDI 2.8 software.
(§1) Figure 3 Apoptosis induction and cell cycle effects of compounds in HCT-116 cells. (A) The apoptotic population of HCT-116 cells was analyzed using flow cytometry after treatment with 10 µM of the test compound for 24 h followed by Annexin V/propidium iodide (PI) staining. (B) After treatment with compound concentrations of 10 µM for 24 h, cells were fixed, stained with propidium iodide (PI), and analyzed for cell cycle distribution. Results are expressed as the means ± SD from three independent experiments (* p < 0.05 and ** p < 0.01 *** p < 0.001, control versus compound).

[4] = system: HCT-116 cells; assay: Cell cycle analysis (PI, flow cytometry); type: cell-based, human; settings: 10 µM, 24 h, PI staining
Method: To analyze cell cycle changes, cells permeated at 1 × 10^6 × cells/mL were trypsinized and diluted and then fixed in 70% ethanol at 4 °C. Cell cycle arrest in HCT-116 cells following compound exposure was accomplished using propidium iodide (Sigma-Aldrich, St. Louis, MI, USA). The markers were then assessed using a FACS-Caliburflow cytometer (Beckman Coulter, Taipei, Taiwan) and analyzed using WinMDI software. […]
as §1

T1 sequence (P11388 whole entry): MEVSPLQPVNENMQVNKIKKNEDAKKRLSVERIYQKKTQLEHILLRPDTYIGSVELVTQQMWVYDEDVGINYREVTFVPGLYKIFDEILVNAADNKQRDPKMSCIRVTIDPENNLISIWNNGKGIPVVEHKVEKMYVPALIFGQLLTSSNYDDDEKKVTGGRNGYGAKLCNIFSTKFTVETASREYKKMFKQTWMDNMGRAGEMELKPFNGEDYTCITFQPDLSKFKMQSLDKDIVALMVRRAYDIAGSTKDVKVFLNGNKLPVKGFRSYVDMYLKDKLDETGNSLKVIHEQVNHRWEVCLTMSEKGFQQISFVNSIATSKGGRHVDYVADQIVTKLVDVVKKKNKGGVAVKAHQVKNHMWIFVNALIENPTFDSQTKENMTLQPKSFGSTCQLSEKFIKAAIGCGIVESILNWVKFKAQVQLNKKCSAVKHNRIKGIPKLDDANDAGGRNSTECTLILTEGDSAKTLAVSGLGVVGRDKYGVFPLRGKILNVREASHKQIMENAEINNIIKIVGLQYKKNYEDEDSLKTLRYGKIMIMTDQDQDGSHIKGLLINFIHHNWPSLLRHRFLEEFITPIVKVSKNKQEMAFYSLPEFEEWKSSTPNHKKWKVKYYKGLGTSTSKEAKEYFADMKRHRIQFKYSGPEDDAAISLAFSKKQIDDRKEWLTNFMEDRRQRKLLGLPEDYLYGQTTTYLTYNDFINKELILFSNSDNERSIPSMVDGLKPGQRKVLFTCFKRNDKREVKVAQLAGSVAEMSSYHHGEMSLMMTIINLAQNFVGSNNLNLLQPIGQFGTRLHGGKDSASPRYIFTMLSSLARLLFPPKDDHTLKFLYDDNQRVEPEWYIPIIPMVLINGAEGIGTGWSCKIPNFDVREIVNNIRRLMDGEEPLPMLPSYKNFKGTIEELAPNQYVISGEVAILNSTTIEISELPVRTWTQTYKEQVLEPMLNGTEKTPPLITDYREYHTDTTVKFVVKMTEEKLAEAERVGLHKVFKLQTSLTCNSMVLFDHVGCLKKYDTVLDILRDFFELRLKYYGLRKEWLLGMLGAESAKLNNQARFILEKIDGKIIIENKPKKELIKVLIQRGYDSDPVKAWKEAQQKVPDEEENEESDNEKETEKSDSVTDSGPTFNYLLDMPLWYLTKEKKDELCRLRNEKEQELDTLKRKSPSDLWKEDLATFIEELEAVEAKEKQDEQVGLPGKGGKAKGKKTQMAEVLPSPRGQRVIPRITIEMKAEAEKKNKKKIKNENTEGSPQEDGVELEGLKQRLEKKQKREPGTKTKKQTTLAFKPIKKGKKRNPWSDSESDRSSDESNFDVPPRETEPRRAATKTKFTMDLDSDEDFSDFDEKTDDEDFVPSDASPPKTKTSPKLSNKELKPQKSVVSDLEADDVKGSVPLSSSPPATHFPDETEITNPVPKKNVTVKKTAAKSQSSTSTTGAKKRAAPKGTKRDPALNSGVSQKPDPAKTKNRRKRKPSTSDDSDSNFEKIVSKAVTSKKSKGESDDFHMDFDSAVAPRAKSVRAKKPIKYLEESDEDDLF

What does the source list for `Cc1ccc2nc3ccccc3c(NCc3ccc(Cl)cc3)c2c1` [Compound 31, (4-Chlorobenzyl)-(2-methyl-acridin-9-yl)-amine]?
inhibition at 10 µM [1]: 66.9%; DNA band pattern in Topo II relaxation assay [2]: larger base pair band than nicked DNA; induction of apoptosis [3]: 20%–50%; effect on cell cycle [4]: arrested the cell cycle in the S phase
